# Test results: patent US8455525B2, “Selective androgen receptor modulators” (Radius Health, Inc., priority 2008, dated 2013)
# Where a name gives a salt, the structure may show the parent alone.
# Biological target: T1, androgen receptor (AR) (Rattus norvegicus, UniProt P15207)
# T1 construct: purchased Invitrogen, Madison, Wis
# T1 sequence (P15207 651-902 limits assumed): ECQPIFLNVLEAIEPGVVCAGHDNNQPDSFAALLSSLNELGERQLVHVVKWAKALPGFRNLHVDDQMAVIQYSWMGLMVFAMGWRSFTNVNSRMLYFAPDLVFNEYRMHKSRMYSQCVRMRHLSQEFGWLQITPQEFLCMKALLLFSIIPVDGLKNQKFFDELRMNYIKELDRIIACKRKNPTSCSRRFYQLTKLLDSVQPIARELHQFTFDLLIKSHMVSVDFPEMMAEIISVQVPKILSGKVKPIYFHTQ
# Test: androgen receptor binding assay (fluorescence polarization, Fluormone AL Green competition)
# Details: not given
# Description: The assay was performed as specified by the manufacturer (Invitrogen, Madison, Wis.). Briefly, 1 μl of 10 mM compound was added to 500 μl of AR screening buffer in a 1.5 ml eppendorf tube to make a 2×10^−5M stock. 10-fold serial dilutions of the test compounds were prepared ranging in concentration from 10^−5M to 10^−12M. Each dilution was added in triplicate to a black 384-microtiter plate. The test compounds will be diluted 2-fold in the final reaction. 2×AR-Fluormone™ complex was prepared with 2 nM Flourmone AL Green™ and 30 nM AR. 25 μl of 2× complex was aliquoted to each reaction well, such that the final reaction volume was 50 μl per well. Plate was sealed with a foil cover and incubated in the dark at room temperature for 4 h. Polarization values for each well were measured. The polarization values were plotted against the concentration of the test compound. […] As a control, a competition curve for R1881 (methyltrienolone) was performed for each assay. Curve Fitting was performed using GraphPad Prism® software from GraphPad™ Software Inc. Binding data are reported as a single determination if the experiment was run once only and as the average of experiments if the binding experiment was performed two or more times with that compound.
# Where multiple data points have been taken, the value reported is the average of the multiple determinations.
row,Compound,IC50 [nM]
1,"Cc1c(N[C@@H](c2nnc(-c3ccccc3)s2)[C@@H](C)O)ccc(C#N)c1Cl [Example 26, 2-chloro-4-((1R,2R)-2-hydroxy-1-(5-phenyl-1,3,4-thiadiazol-2-yl)propylamino)-3-methylbenzonitrile]",10
2,"Cc1c(N[C@@H](c2nnc(-c3ccc(O)c(Cl)c3)o2)[C@@H](C)O)ccc(C#N)c1Cl [Example 30, 2-Chloro-4-((1R,2R)-1-(5-(3-chloro-4-hydroxyphenyl)-1,3,4-oxadiazol-2-yl)-2-hydroxypropylamino)-3-methylbenzonitrile]",0.3
3,"Cc1c(N[C@@H](c2nnc(-c3ccc(F)c(O)c3)o2)[C@@H](C)O)ccc(C#N)c1Cl [Example 41, 2-Chloro-4-((1R,2R)-1-(5-(4-fluoro-3-hydroxyphenyl)-1,3,4-oxadiazol-2-yl)-2-hydroxypropylamino)-3-methylbenzonitrile]",0.02
4,"COc1ccc(-c2nnc([C@H](Nc3ccc(C#N)c(Cl)c3C)[C@H](C)O)o2)cc1 [Example 2, 2-chloro-4-((1R,2S)-2-hydroxy-1-(5-(4-methoxyphenyl)-1,3,4-oxadiazol-2-yl)propylamino)-3-methylbenzonitrile]",5
5,"Cc1c(N[C@@H](c2nnc(-c3ccc(C#N)cc3)o2)[C@@H](C)O)ccc(C#N)c1Cl [Example 23, 2-chloro-4-((1R,2R)-1-(5-(4-cyanophenyl)-1,3,4-oxadiazol-2-yl)-2-hydroxypropylamino)-3-methylbenzonitrile]",0.7
6,"Cc1c(N[C@@H](c2nnc(-c3cccc(Cl)c3)o2)[C@H](C)O)ccc(C#N)c1Cl [Example 21, 2-chloro-4-((1R,2S)-1-(5-(3-chlorophenyl)-1,3,4-oxadiazol-2-yl)-2-hydroxypropylamino)-3-methylbenzonitrile]",3
7,"Cc1c(N[C@@H](c2nnc(-c3ccc(O)c(F)c3)o2)[C@H](C)O)ccc(C#N)c1Cl [Example 29, 2-chloro-4-((1R,2S)-1-(5-(3-fluoro-4-hydroxyphenyl)-1,3,4-oxadiazol-2-yl)-2-hydroxypropylamino)-3-methylbenzonitrile]",0.03
8,"Cc1c(N[C@H](CO)c2nnc(-c3ccc(C#N)cc3)o2)ccc(C#N)c1Cl [Example 58, (R)-2-Chloro-4-(1-(5-(4-cyanophenyl)-1,3,4-oxadiazol-2-yl)-2-hydroxyethylamino)-3-methylbenzonitrile]",10
9,"Cc1c(N[C@H](CO)c2nnc(-c3ccccc3)o2)ccc(C#N)c1Cl [Example 17, (R)-2-chloro-4-(2-hydroxy-1-(5-phenyl-1,3,4-oxadiazol-2-yl)ethylamino)-3-methylbenzonitrile]",10
10,"C[C@H](O)[C@@H](Nc1ccc(C#N)c(C(F)(F)F)c1)c1nnc(-c2ccccc2)o1 [Example 16, 4-((1R,2S)-2-hydroxy-1-(5-phenyl-1,3,4-oxadiazol-2-yl)propylamino)-2-(trifluoromethyl)benzonitrile]",35
11,"C[C@H](O)[C@@H](Nc1ccc(C#N)c(C(F)(F)F)c1)c1nnc(-c2ccc(C#N)cc2)o1 [Example 45, 4-((1R,2S)-1-(5-(4-Cyanophenyl)-1,3,4-oxadiazol-2-yl)-2-hydroxypropylamino)-2-(trifluoromethyl)benzonitrile]",470
12,"C[C@@H](O)[C@@H](Nc1ccc(C#N)c(C(F)(F)F)c1)c1nnc(-c2ccc(C#N)cc2)o1 [Example 44, 4-((1R,2R)-1-(5-(4-Cyanophenyl)-1,3,4-oxadiazol-2-yl)-2-hydroxypropylamino)-2-(trifluoro-methyl)benzonitrile]",5
13,"Cc1c(N[C@@H](c2nnc(-c3ccc(C#N)cc3)o2)[C@H](C)O)ccc(C#N)c1C(F)(F)F [Example 42, 4-((1R,2S)-1-(5-(4-Cyanophenyl)-1,3,4-oxadiazol-2-yl)-2-hydroxypropylamino)-3-methyl-2-(trifluoromethyl)benzonitrile]",9
14,"Cc1c(N[C@@H](c2nnc(-c3ccc(O)cc3)o2)[C@H](C)O)ccc(C#N)c1Cl [Example 8, 2-chloro-4-((1R,2S)-2-hydroxy-1-(5-(4-hydroxyphenyl)-1,3,4-oxadiazol-2-yl)propylamino)-3-methylbenzonitrile]",15
15,"Cc1c(N[C@@H](c2nnc(-c3ccc(O)cc3)o2)[C@@H](C)O)ccc(C#N)c1Cl [Example 10, 2-chloro-4-((1R,2R)-2-hydroxy-1-(5-(4-hydroxyphenyl)-1,3,4-oxadiazol-2-yl)propylamino)-3-methylbenzonitrile]",15
16,"Cc1c(N[C@@H](c2nnc(-c3ccccc3)s2)[C@H](C)O)ccc(C#N)c1Cl [Example 27, 2-chloro-4-((1R,2S)-2-hydroxy-1-(5-phenyl-1,3,4-thiadiazol-2-yl)propylamino)-3-methylbenzonitrile]",10
17,"Cc1c(N[C@@H](c2nnc(-c3ccc(Cl)c(Cl)c3)o2)[C@H](C)O)ccc(C#N)c1Cl [Example 55, 2-Chloro-4-((1R,2S)-1-(5-(3,4-dichlorophenyl)-1,3,4-oxadiazol-2-yl)-2-hydroxypropylamino)-3-methylbenzonitrile]",11
18,"Cc1c(N[C@@H](c2nnc(-c3ccc(OS(=O)(=O)O)cc3)o2)[C@H](C)O)ccc(C#N)c1Cl [Example 72, Sodium 4-(5-((1R,2S)-1-(3-chloro-4-cyano-2-methylphenylamino)-2-hydroxypropyl)-1,3,4-oxadiazol-2-yl)phenyl sulfate]",780
19,"C[C@H](O)[C@@H](Nc1ccc(C#N)c(Cl)c1)c1nnc(-c2ccc(S(C)(=O)=O)cc2)o1 [Example 48, 2-Chloro-4-((1R,2S)-2-hydroxy-1-(5-(4-(methylsulfonyl)phenyl)-1,3,4-oxadiazol-2-yl)propylamino)benzonitrile]",> 1000
20,"CC(=O)Nc1ccc(-c2nnc([C@H](Nc3ccc(C#N)c(Cl)c3C)[C@H](C)O)o2)cc1 [Example 78, N-(4-(5-((1R,2S)-1-(3-Chloro-4-cyano-2-methylphenylamino)-2-hydroxypropyl)-1,3,4-oxadiazol-2-yl)phenyl)acetamide]",1
21,"C[C@@H](O)[C@@H](Nc1ccc(C#N)c(C(F)(F)F)c1)c1nnc(-c2ccc(S(C)(=O)=O)cc2)o1 [Example 59, 4-((1R,2R)-2-hydroxy-1-(5-(4-(methylsulfonyl)phenyl)-1,3,4-oxadiazol-2-yl)propylamino)-2-(trifluoromethyl)benzonitrile]",> 1000
22,"Cc1c(N[C@@H](c2nnc(-c3ccc(F)c(F)c3)o2)[C@@H](C)O)ccc(C#N)c1Cl [Example 39, 2-Chloro-4-((1R,2R)-1-(5-(3,4-difluorophenyl)-1,3,4-oxadiazol-2-yl)-2-hydroxypropylamino)-3-methylbenzonitrile]",0.1
23,"Cc1c(N[C@@H](c2nnc(-c3ccc(Cl)cc3)o2)C(C)(C)O)ccc(C#N)c1Cl [Example 15, (R)-2-chloro-4-(1-(5-(4-chlorophenyl)-1,3,4-oxadiazol-2-yl)-2-hydroxy-2-methylpropylamino)-3-methylbenzonitrile]",0.5
24,"Cc1c(N[C@@H](c2nnc(-c3ccc(S(C)(=O)=O)cc3)o2)[C@@H](C)O)ccc(C#N)c1Cl [Example 25, 2-chloro-4-((1R,2R)-2-hydroxy-1-(5-(4-(methylsulfonyl)phenyl)-1,3,4-oxadiazol-2-yl)propylamino)-3-methylbenzonitrile]",258
25,"Cc1c(N[C@@H](c2nnc(-c3ccc(F)cc3)o2)[C@H](C)O)ccc(C#N)c1Cl [Example 5, 2-Chloro-4-((1R,2S)-1-(5-(4-fluorophenyl)-1,3,4-oxadiazol-2-yl)-2-hydroxypropylamino)-3-methylbenzonitrile]",50
26,"C=Cc1c(N[C@@H](c2nnc(-c3ccc(C#N)cc3)o2)[C@H](C)O)ccc(C#N)c1Cl [Example 80, 2-chloro-4-((1R,2S)-1-(5-(4-cyanophenyl)-1,3,4-oxadiazol-2-yl)-2-hydroxypropylamino)-3-vinylbenzonitrile]",1
27,"Cc1c(N[C@@H](c2nnc(-c3ccc(Br)cc3)o2)[C@H](C)O)ccc(C#N)c1Cl [Example 56, 4-((1R,2S)-1-(5-(4-Bromophenyl)-1,3,4-oxadiazol-2-yl)-2-hydroxypropylamino)-2-chloro-3-methylbenzonitrile]",10
28,"Cc1c(N[C@@H](c2nnc(-c3ccc(Cl)cc3)o2)[C@H](C)O)ccc(C#N)c1Cl [Example 4, 2-chloro-4-((1R,2S)-1-(5-(4-chlorophenyl)-1,3,4-oxadiazol-2-yl)-2-hydroxypropylamino)-3-methylbenzonitrile]",11
29,"Cc1c(N[C@@H](c2ncc(-c3ccccc3)o2)[C@H](C)O)ccc(C#N)c1Cl [Example 36, 2-Chloro-4-((1R,2S)-2-hydroxy-1-(5-phenyloxazol-2-yl)propylamino)-3-methylbenzonitrile]",12

# Same assay, conditions: single determination or average of multiple determinations; read-out: Binding IC50 (AR-Binding Affinity)
row,Compound,IC50 [nM]
1,"C[C@@H](O)[C@@H](Nc1ccc(C#N)c2ccccc12)c1nnc(-c2ccc(C#N)cc2)o1 [Example 51, 4-((1R,2R)-1-(5-(4-Cyanophenyl)-1,3,4-oxadiazol-2-yl)-2-hydroxypropylamino)-1-naphthonitrile]",600
